Results on two molecules are retold here after patent US9745299B2, “Substituted tricyclic benzimidazoles as kinase inhibitors” (SELVITA SA, priority 2012, dated 2017).

The target in one data set is T1, CDK7/CyclinH/MAT1 (Homo sapiens, UniProt P50613).
T1 construct: purchased Millipore, Billerica, Mass., USA
Kind of data set: ADP-Glo Kinase Assay, CDK7/CyclinH/MAT1. To be noted: read-out: % inhibition at 1 μM CDK7/CyclinH/MAT1. In kind it is biochemical. Here is the method: Testing of the compounds described in this invention was carried out using the ADP-Glo™ Kinase Assay from Promega Corporation (Madison, Wis., USA).
The ADP-Glo™ Kinase Assay is a luminescent ADP detection assay to measure kinase activity by quantifying the amount of ADP produced during a kinase reaction. The kinase assay is performed in kinase assay buffer (5 mM MOPS, pH 7.5, 5 mM MgCl2, 0.4 mM EDTA, 1.5 mM DTT). Test samples initially dissolved in DMSO at 10 mM were diluted with the assay buffer to 1000 nM. A 30 μL volume/well of a mixture of substrates containing ATP (final ATP concentration in each kinase assay was equal to its apparent ATP Km).
The assay was performed in two steps: first, after the kinase reaction, an equal volume of ADP-Glo™ Reagent was added to terminate the kinase reaction and deplete the remaining ATP. Second, the Kinase Detection Reagent was added to simultaneously convert ADP to ATP and allowed the newly synthesized ATP to be measured using a luciferase/luciferin reaction. The luminescent signal generated was proportional to the ADP concentration produced and was correlated with kinase activity.
A general note: ADP-Glo first removes unused ATP, then detects ADP through luciferase.

For data set [1], the system named is PC-3 adenocarcinoma prostate. Description: Cytotoxic effects, PC-3. It is filed as cell-based, human.
In a further data set the test system is A549 lung carcinoma. Description: Cytotoxic effects, A549. In kind it is cell-based, human.
The next data set has as its target T2, CDK8/CyclinC (Homo sapiens, UniProt P49336).
T2 construct: purchased ProQinase, Freiburg, Germany
Description: ADP-Glo Kinase Assay, CDK8/CyclinC. Further: ATP at apparent Km (53 µM). To be noted: read-out: % inhibition at 1 μM CDK8/CyclinC. It is filed as biochemical. In short, it runs like this: (§1)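 ADP-Glo luminescent ADP detection measured kinase activity: remaining ATP depleted, ADP converted to ATP for luciferase read-out.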

Another data set deals with Rec-1 B-cell lymphoma. Kind of data set: Cytotoxic effects, Rec-1. It is filed as cell-based, human.
A further data set relates to SW480 cells. Description: MTS viability assay, SW480. In kind it is cell-based. To be noted: Homo sapiens, SW480, 72 hour incubation, read-out: IC50 [μM] SW-480 ED50. In short, it runs like this: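 Colon cancer lines, 10,000-20,000 cells/well in DMEM with 10% FBS, were treated with serially diluted compound for 72 h at 37 °C, 5% CO2. Viability came from MTS tetrazolium reduction after 2 h further incubation, read as absorbance at 490 nm.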
(Tetrazolium dyes change colour on reduction, which living cells bring about.)

Another data set has as its target T3, CDK2/CyclinE (Homo sapiens, UniProt P24941).
T3 construct: purchased Millipore, Billerica, Mass., USA
Kind of data set: ADP-Glo Kinase Assay, CDK2/CyclinE. It is filed as biochemical. As to conditions: read-out: % inhibition at 1 μM CDK2/CyclinE. The method in brief: as §1

For data set [2], the system named is MV4-11 acute myelocytic leukemia (AML). Description: Cytotoxic effects, MV4-11. In kind it is cell-based, human.
The next data set concerns the target T4, CDK1/CyclinB (Homo sapiens, UniProt P06493).
T4 construct: purchased Millipore, Billerica, Mass., USA
Description: ADP-Glo Kinase Assay, CDK1/CyclinB. Further: ATP at apparent Km (20 µM). It is filed as biochemical. As to conditions: read-out: % inhibition at 1 μM CDK1/CyclinB. As for the experimental part:
Testing of the compounds described in this invention was carried out using the ADP-Glo™ Kinase Assay from Promega Corporation (Madison, Wis., USA). […] The ADP-Glo™ Kinase Assay is a luminescent ADP detection assay to measure kinase activity by quantifying the amount of ADP produced during a kinase reaction. The kinase assay is performed in kinase assay buffer (5 mM MOPS, pH 7.5, 5 mM MgCl2, 0.4 mM EDTA, 1.5 mM DTT). Test samples initially dissolved in DMSO at 10 mM were diluted with the assay buffer to 1000 nM. A 30 μL volume/well of a mixture of substrates containing ATP (final ATP concentration in each kinase assay was equal to its apparent ATP Km). […] The assay was performed in two steps: first, after the kinase reaction, an equal volume of ADP-Glo™ Reagent was added to terminate the kinase reaction and deplete the remaining ATP. Second, the Kinase Detection Reagent was added to simultaneously convert ADP to ATP and allowed the newly synthesized ATP to be measured using a luciferase/luciferin reaction. The luminescent signal generated was proportional to the ADP concentration produced and was correlated with kinase activity.

Data set [3] concerns MCF7 breast adenocarcinoma. Kind of data set: Cytotoxic effects, MCF7. It is filed as cell-based, human.
The next data set relates to HepG2 hepatocarcinoma. Kind of data set: Cytotoxic effects, HepG2. It is filed as cell-based, human.

Counter-ions that a name gives are not always drawn.

T2 sequence (P49336 whole entry): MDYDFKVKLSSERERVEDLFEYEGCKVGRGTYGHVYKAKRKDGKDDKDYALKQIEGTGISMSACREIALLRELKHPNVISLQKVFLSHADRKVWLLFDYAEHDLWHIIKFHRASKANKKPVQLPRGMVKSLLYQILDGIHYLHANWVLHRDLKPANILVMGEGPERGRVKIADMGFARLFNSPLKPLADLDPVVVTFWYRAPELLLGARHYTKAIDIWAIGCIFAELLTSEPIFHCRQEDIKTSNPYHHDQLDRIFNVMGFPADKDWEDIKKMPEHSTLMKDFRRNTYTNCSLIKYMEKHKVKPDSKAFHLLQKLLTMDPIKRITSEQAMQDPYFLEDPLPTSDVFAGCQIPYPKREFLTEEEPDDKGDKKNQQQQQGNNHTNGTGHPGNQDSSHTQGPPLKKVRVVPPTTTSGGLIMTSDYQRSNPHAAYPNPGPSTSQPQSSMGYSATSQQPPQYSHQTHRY
T2 sequence (P24863 whole entry partner): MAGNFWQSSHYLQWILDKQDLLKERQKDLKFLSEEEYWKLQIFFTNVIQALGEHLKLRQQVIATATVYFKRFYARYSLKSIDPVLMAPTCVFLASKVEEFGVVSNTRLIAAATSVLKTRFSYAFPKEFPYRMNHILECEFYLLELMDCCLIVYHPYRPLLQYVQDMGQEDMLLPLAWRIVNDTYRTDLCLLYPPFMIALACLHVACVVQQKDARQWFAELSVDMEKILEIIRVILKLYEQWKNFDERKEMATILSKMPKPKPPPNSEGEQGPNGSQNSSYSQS
T1 sequence (P50613 whole entry): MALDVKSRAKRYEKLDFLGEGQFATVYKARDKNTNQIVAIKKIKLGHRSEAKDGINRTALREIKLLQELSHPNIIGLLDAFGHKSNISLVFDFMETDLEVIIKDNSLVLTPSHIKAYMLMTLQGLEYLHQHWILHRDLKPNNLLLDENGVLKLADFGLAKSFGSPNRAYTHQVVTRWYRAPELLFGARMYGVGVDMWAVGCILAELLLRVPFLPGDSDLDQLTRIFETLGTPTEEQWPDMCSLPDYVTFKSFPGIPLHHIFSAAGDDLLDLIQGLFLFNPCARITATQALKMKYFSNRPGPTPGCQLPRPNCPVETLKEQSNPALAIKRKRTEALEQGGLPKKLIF
T1 sequence (P51946 whole entry partner): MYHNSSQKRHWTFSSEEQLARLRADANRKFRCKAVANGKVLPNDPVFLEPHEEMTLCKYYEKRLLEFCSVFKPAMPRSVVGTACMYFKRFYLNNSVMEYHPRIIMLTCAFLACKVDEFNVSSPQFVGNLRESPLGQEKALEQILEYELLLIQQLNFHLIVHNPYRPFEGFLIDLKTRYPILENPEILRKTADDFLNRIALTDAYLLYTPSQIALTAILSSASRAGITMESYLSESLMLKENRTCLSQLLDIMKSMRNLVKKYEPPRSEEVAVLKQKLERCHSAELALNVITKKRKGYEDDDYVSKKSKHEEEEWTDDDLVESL
T1 sequence (P51948 whole entry partner): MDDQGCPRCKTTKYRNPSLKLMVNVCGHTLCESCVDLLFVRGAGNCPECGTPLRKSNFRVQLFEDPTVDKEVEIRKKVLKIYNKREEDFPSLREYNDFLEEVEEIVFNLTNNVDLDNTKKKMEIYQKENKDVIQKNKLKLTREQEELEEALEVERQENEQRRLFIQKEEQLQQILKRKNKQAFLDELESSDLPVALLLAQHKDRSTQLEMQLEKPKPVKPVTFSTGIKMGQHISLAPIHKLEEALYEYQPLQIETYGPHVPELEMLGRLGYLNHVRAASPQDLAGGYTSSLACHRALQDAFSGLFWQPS
T4 sequence (P06493 whole entry): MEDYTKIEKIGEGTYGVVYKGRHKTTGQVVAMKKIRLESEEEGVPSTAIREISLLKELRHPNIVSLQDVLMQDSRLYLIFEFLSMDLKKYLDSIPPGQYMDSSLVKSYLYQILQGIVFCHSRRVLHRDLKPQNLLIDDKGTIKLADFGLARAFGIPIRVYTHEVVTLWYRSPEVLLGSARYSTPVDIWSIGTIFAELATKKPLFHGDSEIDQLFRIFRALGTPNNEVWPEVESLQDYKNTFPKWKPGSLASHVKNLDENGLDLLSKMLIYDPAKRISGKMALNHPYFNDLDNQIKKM
T4 sequence (P14635 whole entry partner): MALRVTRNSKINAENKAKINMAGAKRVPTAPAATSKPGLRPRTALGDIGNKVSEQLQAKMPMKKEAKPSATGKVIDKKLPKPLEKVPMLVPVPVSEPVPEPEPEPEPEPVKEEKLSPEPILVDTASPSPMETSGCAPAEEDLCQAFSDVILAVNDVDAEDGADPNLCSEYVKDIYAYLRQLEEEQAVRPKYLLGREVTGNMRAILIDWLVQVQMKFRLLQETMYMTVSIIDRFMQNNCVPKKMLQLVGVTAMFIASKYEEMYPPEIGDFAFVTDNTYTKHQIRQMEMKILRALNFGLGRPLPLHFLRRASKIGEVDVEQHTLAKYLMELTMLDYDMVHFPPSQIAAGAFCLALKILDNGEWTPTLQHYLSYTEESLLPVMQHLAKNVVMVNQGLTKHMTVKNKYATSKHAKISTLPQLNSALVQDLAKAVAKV

The IC50 is the concentration at which inhibition is half-maximal. Consider `Cc1c(Br)c(Br)c2c3c1nc(N1CCNCC1)n3CCC2` [Example 1K], for which the inhibition at 1 µM on CDK7/CyclinH/MAT1 turned out to be 0%; on CDK8/CyclinC, 76%; at CDK2/CyclinE, 0%; on CDK1/CyclinB it was 0%. Further, the cytotoxic effects entry (in [1]; with A549 lung carcinoma; with Rec-1 B-cell lymphoma; in [2]; in data set [3]; in the data set on HepG2 hepatocarcinoma) was “showed cytotoxic effects” throughout. In the data set on SW480 cells, the half-maximal inhibitory concentration (IC50) turned out to be 1.1 µM.

For the molecule `Brc1c(Br)c2c3c(nc(N4CCNCC4)n3CCC2)c1Br` [Example 6, 7,8,9-tribromo-2-(piperazin-1-yl)-5,6-dihydro-4H-imidazo[4,5,1-ij]quinoline maleate], the inhibition at 1 µM was 21% at CDK7/CyclinH/MAT1, 96% on CDK8/CyclinC, 0% on CDK2/CyclinE and 38% on CDK1/CyclinB. In addition, the cytotoxic effects result (in data set [1]; with A549 lung carcinoma; with Rec-1 B-cell lymphoma; in data set [2]; in data set [3]; with HepG2 hepatocarcinoma) was “showed cytotoxic effects” each time. For the same molecule, the IC50 in the data set with SW480 cells came out at 1 µM.
